Measurements: ChEMBL document CHEMBL2321747, “A nonionic inhibitor with high specificity for the UDP-Gal donor binding site of human blood group B galactosyltransferase: design, synthesis, and characterization” (J Med Chem, 2013)
The source made the active and inactive calls. The rule behind the calls is not given here.

Assays:
[1] = target: T1, Beta-1,4-galactosyltransferase 1 (Bos taurus) (UniProt P08037); experiment: Binding affinity to bovine beta-1,4-galactosyltransferase 1 using UDP-Gal as substrate at 1.5 mM after 15 hrs by NMR spectroscopic analysis in presence of magnesium ions
T1 sequence (whole entry): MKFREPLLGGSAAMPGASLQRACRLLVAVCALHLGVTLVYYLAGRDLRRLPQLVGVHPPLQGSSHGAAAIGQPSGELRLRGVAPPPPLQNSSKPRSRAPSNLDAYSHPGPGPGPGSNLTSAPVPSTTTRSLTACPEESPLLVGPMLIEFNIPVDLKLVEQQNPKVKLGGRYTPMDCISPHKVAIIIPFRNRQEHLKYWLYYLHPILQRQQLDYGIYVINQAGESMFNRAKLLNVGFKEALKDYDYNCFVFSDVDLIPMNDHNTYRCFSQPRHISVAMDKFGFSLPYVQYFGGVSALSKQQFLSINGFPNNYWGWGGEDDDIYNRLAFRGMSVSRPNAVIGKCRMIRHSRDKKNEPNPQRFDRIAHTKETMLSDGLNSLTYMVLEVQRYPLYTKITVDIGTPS

[2] = species on record: Homo sapiens; experiment: (§1) Competitive inhibition of human blood group A N-acetylgalactosaminyltransferase using UDP-GalNac as substrate in presence of magnesium ions
[3] = target: T2, Histo-blood group ABO system transferase (Homo sapiens, UniProt P16442); experiment: Competitive inhibition of human blood group B Galactosyltransferase using UDP-Gal as substrate by Michaelis-Menten equation analysis in presence of magnesium ions
T2 sequence (P16442 whole entry): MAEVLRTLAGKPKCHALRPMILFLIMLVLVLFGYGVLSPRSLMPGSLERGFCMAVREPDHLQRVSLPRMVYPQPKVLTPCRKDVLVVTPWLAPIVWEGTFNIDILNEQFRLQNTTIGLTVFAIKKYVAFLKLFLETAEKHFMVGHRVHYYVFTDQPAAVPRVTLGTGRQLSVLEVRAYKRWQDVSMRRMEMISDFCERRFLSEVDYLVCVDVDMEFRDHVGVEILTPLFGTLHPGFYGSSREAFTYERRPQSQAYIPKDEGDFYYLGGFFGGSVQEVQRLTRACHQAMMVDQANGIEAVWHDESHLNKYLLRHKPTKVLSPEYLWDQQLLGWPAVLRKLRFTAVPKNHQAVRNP

[4] = target: T2, Histo-blood group ABO system transferase; experiment: Inhibition of human blood group B Galactosyltransferase using radiolabeled UDP-Gal as substrate in presence of manganese ions
[5] = target: T2, Histo-blood group ABO system transferase; experiment: Inhibition of human blood group B Galactosyltransferase using UDP-Gal as substrate by STD NMR analysis in presence of magnesium ions
[6] = target: T2, Histo-blood group ABO system transferase; experiment: Binding affinity to human blood group B Galactosyltransferase after 300 secs by SPR analysis
[7] = target: T2, Histo-blood group ABO system transferase; experiment: Binding affinity to human blood group B Galactosyltransferase by STD NMR analysis in presence of magnesium ions
[8] = as §1

inhibition [1]	inhibition [2]	Ki [3] [µM]	IC50 [4] [µM]	Ki [4] [µM]	IC50 [5] [µM]	Ki [5] [µM]	Kd [6] [µM]	Kd [7] [µM]	Ki [8] [µM]	Compound
Active	inactive	565	1600	1500	389	117	254	182	–	O=c1[nH]c(=O)c2[nH]c(=O)n(C[C@@H](O)[C@H](O)[C@H](O)CO[C@H]3O[C@H](CO)[C@H](O)[C@H](O)[C@H]3O)c2[nH]1
–	–	–	–	2200	–	571	2300	–	1100	O=c1[nH]c(=O)c2[nH]c(=O)n(C[C@@H](O)[C@H](O)[C@H](O)CO)c2[nH]1
–	–	–	–	1500	–	361	–	–	712	O=c1[nH]c(=O)c2[nH]c(=O)n(C[C@H](O)[C@H](O)[C@H](O)CO)c2[nH]1
